Measured values from patent US12582614B2, “Composition for preventing, alleviating or treating sarcopenia, containing D-ribo-2-hexulose as active ingredient” (KYUNGPOOK NATIONAL UNIVERSITY INDUSTRY-ACADEMIC COOPERATION …, priority 2021, dated 2026).

Experiments:
Format in all cases: in vivo, C57BL/6J male mice
aged mice [1] = assay: Whole-body tension (digital force gauge); settings: DRH group; decrease in NC vs YC
Description: The whole-body tension was measured and evaluated using a digital force gauge (Korea, JM Instruments Corp., FGJN.FGP Series). For each mouse, the whole-body tension was measured and evaluated at intervals of 5 days. In order to evaluate the whole-body tension on week 10 of the experiment, the average value of the maximum whole-body tension was calculated as force per body weight (Ng^−1 BW).

[2] = system: insulin-like growth factor 1 (IGF-1); assay: IHC analysis of muscle tissue, IGF-1; settings: reduction in NC vs YC
Description: For morphological tissue observation, parts of liver and muscle tissues were fixed with a 10% formaldehyde solution for 24 hours. Thereafter, the samples were subjected to replacement with the same solution twice, dehydrated twice with ethanol, embedded in paraffin, and treated with poly-L-lysine to prepare tissue slices having a thickness of 5 μm. For morphological analysis, among the prepared tissue sections, the liver tissue was stained with H&E and MT, and the muscle tissue was stained with H&E and Sirius red, and magnified 200 times under an optical microscope. For IHC analysis, the muscle tissue was stained with IGF-1 and Myostatin, and then observed under an optical microscope.

[3] = system: Akt, AMPK, PI3K, mTOR, PGC1-α, and phosphorylated variants thereof; assay: Western blotting of protein levels of muscle enhancement factors; settings: DRH group vs NC group
Description: The amount of cytoplasmic and membrane proteins was quantified according to the Bradford method. Thereafter, a protein load was applied onto a 10% SDS-polyacrylamide gel, transferred to a Tris-glycine electrophoresis buffer for an hour, and then electrophoresed. The positions of the bands were confirmed using a Ponceau solution, blocking (5% skim milk in TBS/0.1% Tween-20) was performed at room temperature for 60 minutes in order to reduce non-specific reactions to the membrane. Then, the samples were reacted with a primary antibody overnight at 4° C.
Each of the antibodies was reacted with 5% skim milk diluted in the following ratios: Rabbit anti-mouse PGC1-α (1:1,000; Santa Cruz, USA), rabbit anti-mouse α-tubulin (1:1,000; Cell Signaling Technology, USA), rabbit anti-mouse p-Akt (1:1,000; Cell Signaling Technology, USA), rabbit anti-mouse Akt (1:1,000; Cell Signaling Technology, USA), rabbit anti-mouse p-PI3K (1:1,000; Cell Signaling Technology, USA), rabbit anti-mouse PI3K (1:1,000; Cell Signaling Technology), rabbit anti-mouse mTOR (1:1,000; Cell Signaling Technology, USA), rabbit anti-mouse TNF-α (1:1,000; Cell Signaling Technology, USA), rabbit anti-mouse adiponectin (1:1,000; Cell Signaling Technology, USA), rabbit anti-mouse haptoglobin (1:1,000; Abcam, USA), rabbit anti-mouse SCD1 (1:1,000; Cell Signaling Technology, USA), goat anti-mouse CerS1 (1:1,000; Novus Biologicals Ltd., USA), and rabbit anti-mouse NF-κB (1:000; Cell Signaling Technology, USA). The protein bands were washed, and the membrane was then reacted with a primary antibody in a TBST buffer (25 mM Tris-base, 155 mM NaCl, 0.1% Tween-20) in the presence of anti-rabbit IgG (1:1,000; Amersham Ltd., UK) or anti-goat IgG (1:1,000; ABcam Inc., USA) secondary antibodies for 30 minutes, and reacted at room temperature for an hour. Then, the membrane was washed again with a TBST buffer for 30 minutes. Immunoreactive bands were developed on a film using an ECL kit (Pierce Chemical Co., IL) to check the bands in a final state.

[4] = system: Mitochondrial respiratory chain complexes; assay: BN-PAGE of mitochondrial respiratory chain complexes; settings: quadriceps mitochondria, vs NC group
Description: Mitochondria were isolated from the quadriceps muscle using the Potter-Elvehjem method. To extract respiratory SCs, a sample buffer cocktail was prepared using 8 μL of digitonin (Invitrogen, USA) per 50 μg of protein, 4×5 μL of a sample buffer (Invitrogen, USA) per 50 μg of protein, and 7 μL of water per 50 μg of protein. Thereafter, the solution was mixed with mitochondria. The BN-PAGE run and transfer were performed. An Ox-Phos Rodent WB antibody cocktail (Invitrogen, USA) was reacted at room temperature for 2 hours. Then, a secondary antibody solution Alk-Phos (Invitrogen, USA) was reacted at room temperature for an hour. Immunoreactive bands were developed using chromogen (BCIP/NBT). Then, the bands in a final state were checked.

aged mice [5] = assay: Fat and muscle weight
TNF-α, IL-4, IL-1β, IL-6 = assay: Plasma inflammatory cytokine levels; settings: between the groups (YC, NC, DRH)
Description: For cytokine analysis, plasma cytokines (TNF-α, IL-1β, and IL-4) were measured with a Merck Millipore product (MCYTOMAG-70K, Merck, USA). Plasma (30 μL) from each mouse was analyzed in duplicate. Hormone analysis was performed using a cortisol and testosterone parameter assay kit (R&D Systems, USA).

O=C(CO)[C@H](O)[C@H](O)[C@H](O)CO [DRH, D-ribo-2-hexulose]
whole-body tension (aged mice [1]): dramatically compensated for the decrease | expression level of IGF-1 [2]: improved this reduction | protein level of AMPK and phosphorylated variant [3]: significantly increased | protein level of Akt and phosphorylated variant [3]: significantly increased | protein level of PGC1-α [3]: significantly increased | protein level of PI3K and phosphorylated variant [3]: significantly increased | protein level of mTOR and phosphorylated variant [3]: significantly increased | mitochondrial respiratory chain Complex IV [4]: significantly increased | ratio of the total weight of muscle tissue to the total weight of adipose tissue (aged mice [5]; DRH group vs NC group): significantly increased | total weight of muscle tissue (aged mice [5]; DRH group vs NC group): no significant difference | fat weight (aged mice [5]; DRH supplementation): reduced | level of inflammatory cytokine IL-1β (TNF-α, IL-4, IL-1β, IL-6): not significantly different | level of inflammatory cytokine IL-4 (TNF-α, IL-4, IL-1β, IL-6): not significantly different | level of inflammatory cytokine IL-6 (TNF-α, IL-4, IL-1β, IL-6): not significantly different | level of inflammatory cytokine TNF-α (TNF-α, IL-4, IL-1β, IL-6): not significantly different
